Data reported in patent publication US6977271B1, “Method for inhibition of angiogenesis and vasculogenesis” (Health Research, Inc., priority 2001, dated 2005).

Tests used:
[1] = system: rat mammary stromal cells (MSC); assay: In vitro angiogenesis assay: microcapillary network formation on EHS-RBM; type: cell-based; settings: 7 days in culture; for microcapillary network diameter: 75, 100 and 125 μM
Description: An in vitro angiogenesis assay, the formation of microcapillary networks by rat mammary stromal vascular precursor cells on the angiogenic substrate, EHS-RBM, was used to compare the isomer- and concentration-dependent effects of mixed CLA isomers and c9,t11- and t10,c12-CLA. Rat mammary stromal cells (MSC) have the ability to act as true vascular precursors and were isolated from mammary glands as described (Zangani et al., 1999).
CLA-containing media was prepared as follows. Briefly, 18.1 μl of 5N NaOH was added to 28.2 μl of CLA (0.9 g/ml, FW 280) in a small Erlenmeyer flask, followed by vortexing, to make the sodium salt. Warm fetal calf serum (10 ml) was added, sonicated 3–4× with brief pulses (5 sec each), and then gassed with nitrogen and the flask sealed with parafilm. The mixture was incubated in a sonicating water bath for 30 min, followed by 5 min incubation in a 50° C. water bath. FBS (11.9 ml) was added to the flask, to bring the CLA to a final 33× concentration (4.125 mM).
Early passage MSC (prior to passage 4) were cultured in a 24 well plate at 2×10^4 cells/well, plated onto 0.4 ml EHS-RBM in the presence of phenol red free F12/DME with 3% FCS, supplemented with 0, 25, 50, 75, 100 or 125 μM CLA. After 7 days in culture, when the cells had formed multiple colonies of three-dimensional networks of tubules (Zangani et al., 1999), capillary networks were photographed, and the extent of network formation was assessed by measuring four planar diameters, at 45° intervals, of the branching colonies. The five largest colonies in each of three wells per group were assessed, for a total of fifteen colonies for each concentration of CLA per experiment. This experiment was replicated twice.

[2] = system: EHS-RBM pellet (angiogenic challenge); assay: In vivo EHS-RBM angiogenesis assay; set-up: species or system CD2/F1 mice
Description: (§1) To determine the effects of dietary CLA on angiogenesis, the in vivo angiogenesis model of Kibbey et al., 1992 was utilized. Briefly, CD2/F1 female mice were placed on diets with or without CLA at 8 or 12 weeks of age, with 10–12 mice per group per experiment. After 6 weeks of diet, mice were given bilateral injections of EHS-RBM containing 1.25 μg/ml bFGF and 60 μg/ml heparan sulfate using a 25-gauge needle, into the region of mammary gland four. Mice were sacrificed 7 days after injection. Blood was collected from the trunk for preparation of plasma for analysis of VEGF levels. Pellets and adjacent normal mammary gland tissue were removed and formalin fixed for paraffin embedding. This experiment was repeated four times.
Microsope visual fields, visualized with a 20× objective were analyzed for cellular invasion, and with a 40× objective for the presence of functional blood vessels, for a final magnification of 200 or 400×, respectively. The ability of dietary CLA to affect cellular invasion into the EHS-RBM pellet was analyzed on H&E-stained paraffin sections by counting the number of nuclei per field, excluding all acellular regions that remained uninvaded. A total of 68 fields were assessed in 13 pellets from mice on control diets, 75 fields were assessed from 9 pellets from mice on 1% CLA diets, and 62 fields analyzed from 13 pellets, obtained from mice on 2% CLA diets. We analyzed all pellets retrieved from the animals; there was a decline in the number of visible pellets in CLA-fed animals.
Functional angiogenesis was quantified by determining the number of cell-lined structures with patent lumen and red blood cells. H&E stained paraffin sections were visualized by epifluorescent illumination; red blood cells are strongly fluorescent due to their intensely eosinophilic cytoplasm. This intensity is easily distinguished from the dimly fluorescent nucleated cells. The relative dimness of nucleated cells may be partly due to the presence of nuclear and/or cytoplasmic hematoxylin, which quenches fluorescence. A total of 162 fields were analyzed from 21 slides from control diet animals, 158 fields were analyzed from 21 slides from 1% CLA diet animals, and 174 fields were analyzed from 13 slides from 2% CLA diet animals.

VEGF-A = assay: Serum VEGF analysis by ELISA after EHS-RBM challenge; type: in vivo, CD2/F1 mice; settings: for reduction of average serum VEGF levels: 7 days after angiogenic challenge, relative to control diet
Description: as §1
Serum VEGF (VEGF-A) levels were assessed by ELISA using a commercial kit (Quantikine M mouse VEGF ELISA, R&D Systems), as per the manufacturer's instructions. VEGF levels were assessed in sera from mice which had been on diet for a total of 7 weeks, and had received EHS-RBM angiogenic challenge 1 week prior to sacrifice.

VEGF = assay: Western blot of VEGF in whole mammary gland lysates; type: in vivo, CD2/F1 mice; settings: dietary CLA 7 weeks, no angiogenic challenge, dose-dependent
Description: (§2) Alternately, for analysis of whole mammary gland levels of VEGF and Flk-1, 10 mice per group were placed on diet at 8 weeks of age, and mice were sacrificed 7 weeks after diet initiation. Mammary glands were snap-frozen in liquid nitrogen to be utilized for preparation of whole gland lysates.
Whole mammary glands (gland four) were dissected after sacrifice from mice fed control- or CLA-supplemented diets, snap-frozen in liquid nitrogen and stored at −80° C. Lysates were prepared by pulverizing the frozen glands in a liquid nitrogen-cooled metal pulverizer to a fine powder. The powder was weighed in a pre-tared microfuge tube, and resuspended in ice-cold Triton X-100 lysis buffer (50 mM Tris, pH7.5 at room temperature, 250 mM NaCl, 5 mM EDTA, 0.1% (v/v) Triton X-100, supplemented with 0.1 mM PMSF, 20 ng/ml leupeptin and 100 ng/ml soybean trypsin inhibitor) using 2 ml per gram of tissue. The powder was then homogenized in an ice-cold microfuge tube, using 10–15 strokes of a fitted glass homogenizer. […] Lysates from 7 mice per dietary group were analyzed.
Lysates were loaded using equal protein per well, and proteins were separated on a 7.5% reducing SDS-gel according to the method of Laemmli well known in the art. […] Specific antibody-reactive bands were quantified by densitometry using a Model 300A Scanning Laser Densitometer and ImageQuant software (Molecular Dynamics).

Flk-1 (VEGF receptor 2) = assay: Western blot of Flk-1 in whole mammary gland lysates; type: in vivo, CD2/F1 mice
Description: as §2
Whole mammary glands (gland four) were dissected after sacrifice from mice fed control- or CLA-supplemented diets, snap-frozen in liquid nitrogen and stored at −80° C. Lysates were prepared by pulverizing the frozen glands in a liquid nitrogen-cooled metal pulverizer to a fine powder. The powder was weighed in a pre-tared microfuge tube, and resuspended in ice-cold Triton X-100 lysis buffer (50 mM Tris, pH7.5 at room temperature, 250 mM NaCl, 5 mM EDTA, 0.1% (v/v) Triton X-100, supplemented with 0.1 mM PMSF, 20 ng/ml leupeptin and 100 ng/ml soybean trypsin inhibitor) using 2 ml per gram of tissue. The powder was then homogenized in an ice-cold microfuge tube, using 10–15 strokes of a fitted glass homogenizer. Samples were incubated on ice for 30 minutes, and then centrifuged for 10 min at 4° C. at 8,000×g. The supernatants were then aliquoted and frozen at −20° C. An aliquot of the sample was used to determine protein concentration, using the Bio-Rad protein assay. Immediately before electrophoresis, samples were prepared for loading by adding 4× Laemmli SDS-sample buffer at a 1:3 ratio to the thawed sample. The sample was then boiled, sonicated, and centrifuged for 10 min at 4° C., 8,000×g in a microfuge, before loading supernatant. Lysates from 7 mice per dietary group were analyzed.
Lysates were loaded using equal protein per well, and proteins were separated on a 7.5% reducing SDS-gel according to the method of Laemmli well known in the art. Proteins were transferred to nitrocellulose using a Bio-Rad Transblot Apparatus (Hercules, Calif.). Blots were blocked with Blotto (TBS (10 mM Tris, pH 8.0, 150 mM NaCl), 0.5% Tween 20, 5% (w/v) non-fat dry milk). All antibody incubations and subsequent rinses were performed in Blotto, with vigorous rocking. Rabbit anti-VEGF-A was used at a final concentration of 2 μg/ml, and rabbit anti-Flk-1 was used at a final concentration of 1 μg/ml. To control for variability in loading, the same blots used for VEGF were stripped and probed for Flk-1. The blots were then stripped again and probed with mouse antisera to hsc70, at a 1:20,000 final concentration. Hsc70 was used as a control for cellular protein loading of western blots, as a constitutively expressed cytoplasmic housekeeping protein. […] Specific antibody-reactive bands were quantified by densitometry using a Model 300A Scanning Laser Densitometer and ImageQuant software (Molecular Dynamics).

[3] = system: mouse epidermal carcinogenesis; settings: Ha et al, 1987; Belury et al, 1996; cited from earlier work
[4] = system: mouse forestomach neoplasia; settings: Ha et al, 1990; cited from earlier work
[5] = system: rat mammary carcinogenesis; settings: Ip et al, 1991, 1994, 1995; cited from earlier work
[6] = system: aberrant crypt foci in the rat colon; settings: Liew et al, 1995; cited from earlier work
[7] = system: MDA-MB468 breast cancer cells and DU-145 prostatic tumor cells; settings: MDA-MB468 and DU-145 cells in SCID mice; Visonneau et al, 1997; Cesano et al, 1998; cited from earlier work

CCCCCC/C=C/C=C\CCCCCCCC(=O)O [c9,t11-CLA, cis-9, trans-11 CLA]
microcapillary network diameter [1]: significantly decreased

CCCCC/C=C\C=C\CCCCCCCCC(=O)O [t10,c12-CLA]
microcapillary network size ([1]; 100 and 125 μM): significant decreased

Conjugated Linoleic Acid [CLA]
functional angiogenesis within the EHS pellet (structures containing red blood cells) ([2]; 1% CLA diet vs control diet): significantly decreased | functional angiogenesis within the EHS pellet (structures containing red blood cells) ([2]; 2% CLA diet vs control diet): significantly decreased | cellular invasion, number of nuclei per field in the invaded regions of the pellet ([2]; CLA-fed mice (1% or 2% CLA diet) vs control diet, 7 days after EHS-RBM injection): significantly decreased | average measured depth of cellular infiltration of the pellet ([2]; CLA-fed vs control mice, data not shown): not different | reduction of average serum VEGF levels (VEGF-A; 1% CLA diet for 7 weeks): approximately 40% | reduction of average serum VEGF levels (VEGF-A; 2% CLA diet for 7 weeks): approximately 40% | systemic effect on serum VEGF with or without angiogenic challenge (VEGF-A; data not shown): only significant in mice stimulated by angiogenic challenge | mammary gland VEGF 28 kDa band, densitometry normalized to hsc70 (VEGF): significantly decreased | mammary gland VEGF 54 kDa band, densitometry normalized to hsc70 (VEGF): significantly decreased | expression of Flk-1 protein on western blot (Flk-1 (VEGF receptor 2); animals fed 2% CLA): uniformly low expression | mammary gland Flk-1 60 kDa band, scanning densitometry (Flk-1 (VEGF receptor 2); dietary CLA, dose-dependent): statistically significant decrease | mammary gland Flk-1 200 kDa band, scanning densitometry (Flk-1 (VEGF receptor 2); dietary CLA, dose-dependent): statistically significant decrease | expression of Flk-1 protein on western blot (Flk-1 (VEGF receptor 2); mice fed 1% CLA): variable expression | microcapillary network diameter [1]: significantly decreased | total number of colonies and size/extent of their branching ([1]; MSC on EHS-RBM): inhibited | DMBA-induced mouse epidermal carcinogenesis [3]: inhibit | BP-induced mouse forestomach neoplasia [4]: inhibit | DMBA- and NMU-induced rat mammary carcinogenesis [5]: inhibit | incidence of aberrant crypt foci in the rat colon [6]: inhibit | size and metastatic spread of human tumor cells [7]: reduce
